The record followed here is EP0973746B1, “SUBSTITUTED 3-CYANO QUINOLINES” (Wyeth Holdings Corporation, priority 1997, dated 1998).

Assay [1] has as its system SKBR3. Nature of the assay: Inhibition of cancer cell growth as measured by cell number, SKBR3.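 Further: SK-BR-3 cells were selected as a line overexpressing HER2/neu.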 Type of assay: cell-based, human. To be noted: Homo sapiens, Table 8.
Source text: (§1) The cell lines were chosen since they overexpressed epidermal growth factor receptor (EGFR) (i.e. A431) or HER2/neu (SKBR3), or had little to no expression of the these receptors (SW620, LOX, MCF7).
The subject of assay [2] is A431. Put plainly: Inhibition of cancer cell growth as measured by cell number, A431.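 Further: human A431 line, picked because it overexpresses epidermal growth factor receptor (EGFR).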 Type of assay: cell-based, human. As to conditions: Homo sapiens, A-431, 48 h, Table 8.
Source text: as §1
Assay [3] deals with recombinant human MEK 1 (MAPKK) and recombinant human ERK2 (MAPK). Nature of the assay: Mitogen Activated Protein Kinase (MAPK) assay, two component coupled MEK 1 / ERK2.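 Further: MEK 1-activated ERK2 phosphorylates MBP or Myc peptide with 33P-ATP, filter capture and scintillation counting, inhibitor preincubated with ERK2 30 min at 0 °C, inhibition relative to uninhibited control.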 Type of assay: biochemical. As to conditions: separate entries for the same compound = evaluated more than one time.
Assay [4] relates to SW620. Nature of the assay: Inhibition of cancer cell growth as measured by cell number, SW620.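 Further: SW620 was included as a cell line with little or no EGFR or HER2/neu expression, in contrast to receptor-overexpressing lines.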 Type of assay: cell-based, human. To be noted: Homo sapiens, SW-620, 48 h, Table 8.
Source text: as §1
The target of assay [5] is T1, His-tagged cytoplasmic domain of EGFR (Homo sapiens, UniProt P00533).
T1 construct: containing the EGFR cDNA encoding amino acids 645 - 1186 preceded by Met-Ala-(His)6; made in house; host or cells: Sf9 cells, recombinant baculovirus vHcEGFR52
Put plainly: Inhibition of Epidermal Growth Factor Receptor Kinase (EGF-R) using recombinant enzyme.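 Further: radiometric kinase assay measuring radiolabeled phosphate transfer from ATP onto the peptide tyrosine by scintillation counting, control is reaction without compound, background subtracted, IC50 from dose-response curve.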 To be noted: recombinant enzyme; RR-SRC peptide; average of the number of tests; read-out: IC50. Type of assay: biochemical.

Where [6] appears, read: SK-BR-3, cell number, Sulforhodamine B, 48 hours exposure, read-out: IC50 SKBR3.
[7] abbreviates: cell number, Sulforhodamine B, 48 hours exposure, read-out: IC50 A431.
[8] abbreviates: cell number, Sulforhodamine B, 48 hours exposure, read-out: IC50 SW620.
Where [9] appears, read: SK-BR-3, 48 h, read-out: IC50 SKBR3, cell number, Sulforhodamine B, 48 hours exposure.
The mark [10] stands for this setting: read-out: IC50 A431, cell number, Sulforhodamine B, 48 hours exposure.
The mark [11] stands for this setting: read-out: IC50 SW620, cell number, Sulforhodamine B, 48 hours exposure.

Values after ≈ are worked out from the molar mass of the structure shown. Where two headings read alike, the source gives them in different places.

What is called IC50 is the midpoint of a concentration-inhibition curve.

T1 sequence (P00533 669-1210): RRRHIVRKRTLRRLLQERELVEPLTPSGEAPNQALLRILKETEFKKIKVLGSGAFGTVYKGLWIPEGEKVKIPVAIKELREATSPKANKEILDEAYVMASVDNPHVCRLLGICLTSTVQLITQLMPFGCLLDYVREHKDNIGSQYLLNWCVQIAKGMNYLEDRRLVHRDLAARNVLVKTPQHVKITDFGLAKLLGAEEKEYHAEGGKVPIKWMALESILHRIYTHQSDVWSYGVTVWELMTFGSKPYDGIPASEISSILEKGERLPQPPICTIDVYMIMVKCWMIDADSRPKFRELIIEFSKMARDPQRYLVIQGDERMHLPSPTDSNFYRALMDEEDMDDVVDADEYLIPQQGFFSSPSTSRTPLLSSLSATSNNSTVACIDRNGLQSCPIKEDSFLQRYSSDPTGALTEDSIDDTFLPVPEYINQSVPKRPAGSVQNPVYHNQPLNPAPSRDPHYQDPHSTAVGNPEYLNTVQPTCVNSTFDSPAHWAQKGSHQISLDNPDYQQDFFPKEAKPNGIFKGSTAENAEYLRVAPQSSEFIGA

On to `CCN(CC)CC=CC(=O)Nc1ccc2ncc(C#N)c(Nc3ccc(F)c(Cl)c3)c2c1` [Example 146, N-{4-[(3-Chloro-4-fluorophenyl)amino]-3-cyano-6-quinoliny}-4-diethylamino-2-butenamide], for which the 50% inhibitory concentration (IC50) in assay [1] (setting [6]) worked out at 0.03 µg/mL (≈ 0.0664 µM); in assay [2] (setting [7]) it was 0.03 µg/mL (≈ 0.0664 µM); in assay [3] it was 6 µM; in assay [4] (setting [8]), 0.6 µg/mL (≈ 1.33 µM); in assay [5], 30 nM.
In the case of `COCC#CC(=O)Nc1ccc2ncc(C#N)c(Nc3ccc(F)c(Cl)c3)c2c1` [Example 194, N-[4-[-(3-Chloro-4-fluorophenyl)amino]-3-cyano-6-quinolinyl]-4-methoxy-2-butynamide], the half-maximal inhibitory concentration (IC50) in assay [1] (setting [9]) was 0.2 µg/mL (≈ 0.489 µM); in assay [2] (setting [10]), 0.1 µg/mL (≈ 0.245 µM); in assay [3], above 100 µM; in assay [4] (setting [11]), 0.2 µg/mL (≈ 0.489 µM); in assay [5] it was 1.7 nM.
Regarding `CCN(CC)CC=CC(=O)Nc1cc2c(Nc3ccc(F)c(Br)c3)c(C#N)cnc2cc1OC` [Example 209, 4-Diethylamino-but-2-enoic acid [4-(3-bromo-4-fluorophenylamino)-3-cyano-7-methoxy-quinolin-6-yl]-amide], the 50% inhibitory concentration (IC50) is 0.048 µg/mL (≈ 0.0912 µM) in assay [1] (setting [9]); 0.113 µg/mL (≈ 0.215 µM) in assay [2] (setting [10]); 9 µM in assay [3]; 0.38 µg/mL (≈ 0.722 µM) in assay [4] (setting [11]); 5 nM in assay [5].
For the molecule `CNCC=CC(=O)Nc1ccc2ncc(C#N)c(Nc3cccc(Br)c3)c2c1` [Example 101, 4-Methylamino-but-2-enoic acid [4-(3-bromophenylamino)-3-cyano-quinolin-6-yl]-amide], the IC50 in assay [1] (setting [6]) is above 10 µg/mL; in assay [2] (setting [7]) it was above 10 µg/mL; in assay [3] it was 20 µM; in assay [4] (setting [8]), above 10 µg/mL; in assay [5] it was 100 nM.
Take `C#Cc1cccc(Nc2c(C#N)cnc3ccc(NC(=O)C#CCN4CCCCC4)cc23)c1` [Example 166, N-{3-cyano-4-[(3-ethynylphenyl)amino]-6-quinolinyl)-4-piperidino-2-butynamide]: the concentration for half-maximal inhibition (IC50) was 0.02 µg/mL (≈ 0.0461 µM) in assay [1] (setting [9]); 0.02 µg/mL (≈ 0.0461 µM) in assay [2] (setting [10]); above 100 µM in assay [3]; 0.04 µg/mL (≈ 0.0923 µM) in assay [4] (setting [11]); 20 nM in assay [5].
As to `CCOc1cc2ncc(C#N)c(NCc3ccc(OC)c(OC)c3)c2cc1OCC` [Example 63, 4-(3,4-Dimethoxyphenylmethylamino)-6,7-diethoxy-3-quinolinecarbonitrile], the 50% inhibitory concentration (IC50) in assay [1] (setting [6]) is 0.144 µg/mL (≈ 0.353 µM); in assay [2] (setting [7]), 0.095 µg/mL (≈ 0.233 µM); in assay [3] it was above 100 µM; in assay [4] (setting [8]), 0.208 µg/mL (≈ 0.51 µM); in assay [5], at least 10000 nM.
In the case of `CN(C)CC=CC(=O)Nc1ccc2ncc(C#N)c(Nc3ccc(F)c(Br)c3)c2c1` [Example 172, N-{4-[(3-Bromo-4-fluorophenyl)amino]-3-cyano-6-quinolinyl} -4-dimethylamino-2-butenamide], the IC50 is 0.067 µg/mL (≈ 0.143 µM) in assay [1] (setting [6]); 0.255 µg/mL (≈ 0.544 µM) in assay [2] (setting [7]); 90 µM in assay [3]; 1.59 µg/mL (≈ 3.4 µM) in assay [4] (setting [8]); 5 nM in assay [5].
`CN(C)C/C=C\C(=O)Nc1ccc2ncc(C#N)c(Nc3ccc(F)c(Cl)c3)c2c1` [Example 184, N-[4-[(3-Chloro-4-fluorophenyl)amino]-3-cyano-6-quinolinyl]-4-dimethylamino-(Z)-2-butenamide]: the IC50 in assay [1] (setting [9]) turned out to be 0.3 µg/mL (≈ 0.708 µM); in assay [2] (setting [10]), 0.158 µg/mL (≈ 0.373 µM); in assay [4] (setting [11]) it was 0.463 µg/mL (≈ 1.09 µM); in assay [5] it was 1700 nM.
The like results for `COc1cc2ncc(C#N)c(Nc3ccc(F)c(Br)c3)c2cc1NC(=O)C=CCN1CCOCC1` [Example 175, N-{4-[(3-Bromo-4-fluorophenyl)amino]-3-cyano-7-methoxy-6-quinolinyl}-4-morpholino-2-butenamide] were, in that order, 0.18 µg/mL (≈ 0.333 µM), 0.144 µg/mL (≈ 0.266 µM), 4.95 µg/mL (≈ 9.16 µM) and 300 nM.
For the molecule `COc1cc2ncc(C#N)c(Nc3cccc(Br)c3)c2cc1NC(=O)C=CCCl` [Example 347, N-{4-[(3-Bromophenyl)amino]-3-cyano-7-methoxy-6-quinolinyl} -4-chloro-2-butenamide], the IC50 in assay [1] (setting [6]) worked out at 0.2 µg/mL (≈ 0.424 µM); in assay [2] (setting [7]), 0.04 µg/mL (≈ 0.0848 µM); in assay [4] (setting [8]), 0.2 µg/mL (≈ 0.424 µM); in assay [5] it was 40 nM.
